“Also recorded” adds a separate entry of the source. Like-named read-outs stand apart in the source and are kept apart here.
Assays:
mouse ileal loops = assay: Basal fluid absorption in closed mouse ileal loops, nanoparticle-conjugated peptides, with or without Tenapanor; assay type: in vivo; details: pretreatment with 10-μM Tenapanor
Experimental: All in vivo studies were performed on 8-12 week old C57B1/6N mice anesthetized with isofluorane and kept at 37° C. via heating lamps and rectal thermal probes.
Effect on basal fluid transport and effect of Tenapanor. Mice operated on as above had 3-4 cm closed ileal loops inoculated with 150-μL PBS containing 400-nM nanoparticle-CP-2 or -N3SP-1Δ7. After 4 h, the loops were drained and inoculated with 150-μL PBS. 30 min later, the animals were sacrificed and loop weight/length determined. In parallel studies, Tenapanor (10 μM) was present in both incubation periods. Similar to the BODIPY-conjugated peptide studies, the effects of nanoparticle-CP-2 or N3SP-1Δ7 (4 μM) compared to PBS alone were determined on net fluid secretion produced by inoculation of 0.1-μg CTx. The nanoparticle-peptides plus 0.1-μg CTx in 150-μL PBS were inoculated in 3-4 cm long closed ileal loops. Additional controls included loops exposed only to 150-μL PBS and those only exposed to the CTx/PBS. 4 h later, the animals were sacrificed and loop weight/cm length was determined.

NHE3 [1] = assay: NHE3 activity in PS120/HA3-NHE3/NHERF2 cells (BCECF); assay type: cell-based, rabbit
NHE3 [2] = assay: NHE3 activity in polarized Caco-2/BBe/HA3-NHE3 cells (BCECF); assay type: cell-based; details: for EC50: Hill equation
mouse jejunum [3] = assay: Basal net water transport, in vivo perfusion of mouse jejunal loops
mouse jejunum [4] = details: in vivo
[5] = test system: CTx-induced electrogenic anion secretion; assay: Short-circuit current (Isc) of CTx-treated mouse jejunal loops, Ussing chamber/voltage clamp; details: for Isc in CTx treated loops compared to CTx in PBS: 400 nM peptide with 1-μg CTx for 6 h, no further secretagogue; for peak increases in Isc with sequential addition of FSK and carbachol: CTx exposed loops, 10-μM FSK then 10-μM CCH serosal, CP-1 vs N3SP-1
mouse jejunum [6] = details: in vivo; remark: listed apart in the source
mouse jejunum [7] = assay: Anti-CD3 monoclonal antibody-induced (TNFα-mediated inflammation) fluid secretion, mouse jejunal loops; assay type: in vivo
NHE3 [8] = assay: Effect of N-terminal truncations of N3SP-1 on NHE3 activity in human enteroids (BCECF-fluorometry); assay type: cell-based; details: human duodenal enteroids, Hill equation; for Stimulation of NHE3 Activity: basal NHE3 activity, BCECF-fluorometry; for EC50: stimulation of basal NHE3 activity
Experimental: NHE3 activity in PS120, Caco-2/BBe cells and human jejunal enteroids was determined fluorometrically (Photon Technologies Incorporated) using the intracellular pH sensitive dye BCECF, as reported (Levine et al., 1993; Sarker et al., 2008; Foulke-Abel et al., 2020). PS120/HA3-NHE3 cells were seeded on glass cover slips and studied at 70-80% confluency. Caco-2/BBe/HA3-NHE3 cells were grown to confluency on Transwell inserts (polyester, 0.4-μm pore size) and studied approximately 14-16 days pod. Human duodenal enteroid monolayers on Transwell inserts were differentiated for 5 days in the absence of Wnt3a, R-spondin, and noggin as described (Noel et al., 2017; Staab et al., 2020).
Rates of Na^+/H^+ exchange were determined as Na^+-dependent alkalinization in the presence of 50-μM HOE-694 (to inhibit all other plasma membrane NHE isoforms) in HCO3-free solutions, with internal calibration using the nigericin/K+ method, as previously described (Sarker et al., 2008; Foulke-Abel et al., 2020). Kinetic analysis was used for PS120 cell studies (expressed as Vmax) and initial rates (ΔpH/min) for Caco-2/BBe cells, mouse intestine in vitro, and human enteroids. For in vitro mouse jejunal transport studies, NHE3 activity (in the presence of 50-μM HOE-694) was measured using SNARF-4F at 37° C. in a perfusion chamber using a two-photon microscope (Olympus FV1000) and 25× objective, as described (Murtazina et al., 2011).
Concentration dependent effects on NHE3 basal activity was determined using BCECF-fluorometry. Kinetic analysis was determined of extent of stimulation of basal NHE3 activity; analysis was by use of the Hill equation.
Given the ability of N3SP-1Δ7 to prevent CTx-induced fluid secretion in vivo (FIG. 3E) and to stimulate basal NHE3 activity and prevent cAMP inhibition in human enteroids (FIG. 4C), further studies were carried out with human enteroids to determine the shortest N3SP-1-related peptide that would stimulate human NHE3. A series of N3SP-1 N-terminal truncations was synthesized and concentration-dependent stimulation of NHE3 activity determined using human jejunal enteroids.

NHE3 [9] = assay: NHE3 activity in mouse jejunum in vitro (two-photon microscope/SNARF-4F); assay type: cell-based

CN1Cc2c(Cl)cc(Cl)cc2[C@H](c2cccc(S(=O)(=O)NCCOCCOCCNC(=O)NCCCCNC(=O)NCCOCCOCCNS(=O)(=O)c3cccc([C@@H]4CN(C)Cc5c(Cl)cc(Cl)cc54)c3)c2)C1 [Tenapanor, reference compound]
effect on N3SP-1Δ7 increased baseline fluid absorption (mouse ileal loops): prevented

CP-1: 21 aa control peptide representing aa 585-605 of rabbit NHE3 (YLLRESASAVCLDMQSLEQRR; UniProt P26432 585-605, looked up, fragment)
effect on basal NHE3 activity compared to BODIPY alone (NHE3 [1]): no significant effect
effect on basal NHE3 activity in the absence of BODIPY conjugation (NHE3 [1]): Neither CP-1 nor N3SP-1 altered basal NHE3 activity
EGF stimulation of NHE3 activity in presence of peptide (NHE3 [2]): 38%
jejunal net water transport (mouse jejunum [3]; mouse, in vivo): 4.2 µL/min/cm
effect on CTx-stimulated net fluid secretion (loop weight/cm) (mouse jejunum [4]): did not alter fluid accumulation
localization of NHE3 in CTx-treated jejunum (mouse jejunum [4]): NHE3 was internalized
Isc in CTx treated loops compared to CTx in PBS [5]: slightly, but not significantly, greater
peak increases in Isc with sequential addition of FSK and carbachol [5]: not different
effect on STa-induced intestinal fluid accumulation (mouse jejunum [6]): not observed
effect on anti-CD3 antibody-induced luminal fluid accumulation (mouse jejunum [7]; mouse, in vivo, ip): increased luminal fluid accumulation

N3SP-1 N-terminal truncation of 5 aa: TPRPSTVEASVSYLLRESASAVCLDMQSLEQRR [Peptide N3SP-1Δ5]
Stimulation of NHE3 Activity (NHE3 [8]): YES (39%)
EC50 (NHE3 [8]): 154 nM

N3SP-1 N-terminal truncation of 6 aa: PRPSTVEASVSYLLRESASAVCLDMQSLEQRR [Peptide N3SP-1Δ6]
Stimulation of NHE3 Activity (NHE3 [8]): YES (40%)
EC50 (NHE3 [8]): 151 nM

NHE3 mimetic peptide, rabbit NHE3 aa 568-605: NVDFSTPRPSTVEASVSYLLRESASAVCLDMQSLEQRR [Peptide N3SP-1]
Stimulation of NHE3 Activity (NHE3 [8]): YES (38%)
EC50 (NHE3 [8]): 152 nM
stimulation of basal NHE3 activity compared to CP-1 (NHE3 [1]; BODIPY-conjugated peptide 400 nM, PS120/HA3-NHE3/NHERF2 cells): 61%
effect on inhibition of NHE3 by 4-Br-A23187 (NHE3 [1]; BODIPY-conjugated peptide pretreatment, 0.5-μM A23187, PS120 fibroblasts): prevented inhibition
effect on basal NHE3 activity in the absence of BODIPY conjugation (NHE3 [1]; unconjugated peptide 400 nM, PS120 cells): No stimulatory effect; also recorded: Neither CP-1 nor N3SP-1 altered basal NHE3 activity
stimulation of basal NHE3 activity compared to CP-1 (NHE3 [2]; BODIPY-conjugated peptide 400 nM, Caco-2/BBe/HA3-NHE3 cells): 41%
EC50 (NHE3 [2]; BODIPY-conjugated peptide added apically, Caco-2/BBe cells, read-out: EC50 of prevention of FSK inhibition of NHE3): 157 nM
effect on inhibition of NHE3 by FSK (NHE3 [2]; BODIPY-conjugated peptide pretreatment, FSK (10 μM), Caco-2/BBe cells): prevented inhibition
effect on inhibition of NHE3 by carbachol (NHE3 [2]; BODIPY-conjugated peptide pretreatment, carbachol (10 μM), Caco-2/BBe cells): prevented inhibition
concentration of maximal effect on basal NHE3 activity (NHE3 [2]; BODIPY-conjugated peptide, Caco-2/BBe/HA3-NHE3 cells): 400 nM
EC50 (NHE3 [2]; BODIPY-conjugated peptide, Caco-2/BBe/HA3-NHE3 cells, read-out: EC50 of stimulation of basal NHE3 activity): 152 nM
EGF stimulation of NHE3 activity in presence of peptide (NHE3 [2]; EGF (200 ng/mL), BODIPY-conjugated peptide 400 nM, Caco-2/BBe cells): 35%
stimulation of basal NHE3 activity compared to CP-1 (NHE3 [9]; BODIPY-conjugated peptide 400 nM): 57%
effect on inhibition of NHE3 by FSK (NHE3 [9]; BODIPY-conjugated peptide pretreatment, FSK (10 μM)): prevented inhibition
difference in net water transport between N3SP-1 and CP-1 perfused jejunal loops (mouse jejunum [3]; 400 nM, n=5, p=0.0004): 56.6 ± 15.1 µL/min/cm
effect on CTx-stimulated net fluid secretion (loop weight/cm) (mouse jejunum [4]): prevented CTx-stimulated fluid secretion
localization of NHE3 in CTx-treated jejunum (mouse jejunum [4]): NHE3 was detected on the CTx-treated jejunal BB
Isc in CTx treated loops compared to CTx in PBS [5]: slightly, but not significantly, greater; also recorded: not altered
peak increases in Isc with sequential addition of FSK and carbachol [5]: not different
effect on STa-induced intestinal fluid accumulation (mouse jejunum [6]): significantly reduced
effect on anti-CD3 antibody-induced luminal fluid accumulation (mouse jejunum [7]; 400 nM peptide in loop, 200-μg anti-CD3 antibody IP, 2.5 h): prevents fluid secretion

— patent US20260217768A1, “NANOPARTICLE-NHE3 PEPTIDE TO TREAT DIARRHEA” (The Johns Hopkins University, priority 2023, published 2026)
